± gives the expanded uncertainty stated by the source.
Assay: xn = mol fraction of the nth substance listed
Conditions: 100 kPa, Liquid; for speed of sound: Frequency=3 MHz, Sing-around technique in a fixed-path interferometer; for mass density: Vibrating tube method

## Nc1ccccc1 [aniline] + CCn1cc[n+](C)c1.F[B-](F)(F)F
293.15 K, x2 = 0
  speed of sound: 1656.8 ± 1.3 m/s
  mass density: 1021.69 ± 1 kg/m3
293.15 K, x2 = 0.1008
  speed of sound: 1673.6 ± 1.4 m/s
  mass density: 1068.09 ± 1.5 kg/m3
293.15 K, x2 = 0.2035
  speed of sound: 1684.8 ± 1.5 m/s
  mass density: 1112.92 ± 1.5 kg/m3
293.15 K, x2 = 0.3059
  speed of sound: 1689.8 ± 1.6 m/s
  mass density: 1153.03 ± 1.6 kg/m3
293.15 K, x2 = 0.4053
  speed of sound: 1688.9 ± 1.7 m/s
  mass density: 1183.5 ± 1.6 kg/m3
293.15 K, x2 = 0.5073
  speed of sound: 1684.6 ± 1.8 m/s
  mass density: 1208.33 ± 1.6 kg/m3
293.15 K, x2 = 0.6013
  speed of sound: 1673.9 ± 1.9 m/s
  mass density: 1227.06 ± 1.7 kg/m3
293.15 K, x2 = 0.7046
  speed of sound: 1660.6 ± 2 m/s
  mass density: 1244.52 ± 1.8 kg/m3
293.15 K, x2 = 0.8067
  speed of sound: 1648.4 ± 2.1 m/s
  mass density: 1260.47 ± 1.9 kg/m3
293.15 K, x2 = 0.9059
  speed of sound: 1638.8 ± 2.2 m/s
  mass density: 1272.26 ± 2 kg/m3
303.15 K, x2 = 0
  speed of sound: 1618.3 ± 1.3 m/s
  mass density: 1013.04 ± 1 kg/m3
303.15 K, x2 = 0.1008
  speed of sound: 1634.2 ± 1.4 m/s
  mass density: 1059.52 ± 1.5 kg/m3
303.15 K, x2 = 0.2035
  speed of sound: 1650.6 ± 1.5 m/s
  mass density: 1104.8 ± 1.5 kg/m3
303.15 K, x2 = 0.3059
  speed of sound: 1657.2 ± 1.6 m/s
  mass density: 1144.58 ± 1.6 kg/m3
303.15 K, x2 = 0.4053
  speed of sound: 1658.9 ± 1.7 m/s
  mass density: 1175.21 ± 1.6 kg/m3
303.15 K, x2 = 0.5073
  speed of sound: 1654.5 ± 1.8 m/s
  mass density: 1200.1 ± 1.6 kg/m3
303.15 K, x2 = 0.6013
  speed of sound: 1646.2 ± 1.9 m/s
  mass density: 1219.01 ± 1.7 kg/m3
303.15 K, x2 = 0.7046
  speed of sound: 1634.7 ± 2 m/s
  mass density: 1236.64 ± 1.8 kg/m3
303.15 K, x2 = 0.8067
  speed of sound: 1623.8 ± 2.1 m/s
  mass density: 1252.74 ± 1.9 kg/m3
303.15 K, x2 = 0.9059
  speed of sound: 1614.2 ± 2.2 m/s
  mass density: 1264.62 ± 2 kg/m3
313.15 K, x2 = 0
  speed of sound: 1580 ± 1.3 m/s
  mass density: 1004.36 ± 1 kg/m3
313.15 K, x2 = 0.1008
  speed of sound: 1596.5 ± 1.4 m/s
  mass density: 1050.95 ± 1.5 kg/m3
313.15 K, x2 = 0.2035
  speed of sound: 1616.2 ± 1.5 m/s
  mass density: 1096.69 ± 1.5 kg/m3
313.15 K, x2 = 0.3059
  speed of sound: 1625.5 ± 1.6 m/s
  mass density: 1136.13 ± 1.5 kg/m3
313.15 K, x2 = 0.4053
  speed of sound: 1628.7 ± 1.7 m/s
  mass density: 1166.91 ± 1.6 kg/m3
313.15 K, x2 = 0.5073
  speed of sound: 1624.2 ± 1.8 m/s
  mass density: 1191.87 ± 1.6 kg/m3
313.15 K, x2 = 0.6013
  speed of sound: 1617.6 ± 1.9 m/s
  mass density: 1210.96 ± 1.7 kg/m3
313.15 K, x2 = 0.7046
  speed of sound: 1608.8 ± 2 m/s
  mass density: 1228.76 ± 1.8 kg/m3
313.15 K, x2 = 0.8067
  speed of sound: 1599.4 ± 2.1 m/s
  mass density: 1245.01 ± 1.9 kg/m3
313.15 K, x2 = 0.9059
  speed of sound: 1591.8 ± 2.2 m/s
  mass density: 1256.98 ± 2 kg/m3
323.15 K, x2 = 0
  speed of sound: 1541.9 ± 1.3 m/s
  mass density: 995.66 ± 1 kg/m3
323.15 K, x2 = 0.1008
  speed of sound: 1561.8 ± 1.4 m/s
  mass density: 1042.39 ± 1.4 kg/m3
323.15 K, x2 = 0.2035
  speed of sound: 1583 ± 1.5 m/s
  mass density: 1088.57 ± 1.5 kg/m3
323.15 K, x2 = 0.3059
  speed of sound: 1593 ± 1.6 m/s
  mass density: 1127.68 ± 1.5 kg/m3
323.15 K, x2 = 0.4053
  speed of sound: 1596.8 ± 1.7 m/s
  mass density: 1158.62 ± 1.6 kg/m3
323.15 K, x2 = 0.5073
  speed of sound: 1593.2 ± 1.8 m/s
  mass density: 1183.64 ± 1.6 kg/m3
323.15 K, x2 = 0.6013
  speed of sound: 1589.3 ± 1.9 m/s
  mass density: 1202.91 ± 1.7 kg/m3
323.15 K, x2 = 0.7046
  speed of sound: 1582.3 ± 2 m/s
  mass density: 1220.88 ± 1.8 kg/m3
323.15 K, x2 = 0.8067
  speed of sound: 1575.4 ± 2.1 m/s
  mass density: 1237.28 ± 1.8 kg/m3
323.15 K, x2 = 0.9059
  speed of sound: 1568.9 ± 2.2 m/s
  mass density: 1249.34 ± 1.9 kg/m3

Source: the NIST ThermoML archive (doi:10.1016/j.jct.2016.09.028)
